The numbers were not newly measured in article PMC10200032 (Pharmacological Reports, 2023), which cites them from elsewhere.

Converted amounts (≈) assume the structure as drawn.

The subject of this series is CVB4. To be noted: reference drug in earlier benzoquinazoline studies.

With `NC(=O)c1ncn([C@@H]2O[C@H](CO)[C@@H](O)[C@H]2O)n1` [ribavirin], the “EC50 against CVB4” value was 29 µg/mL (≈ 119 µM).
